Assay results from patent publication US20210317086A1, “Tramadol HBR-Celecoxib Co-Crystal” (Mylan Laboratories Limited, priority 2018, published 2021).

Assay: Indicative stability: storage of the co-crystal at 40° C./75% RH and at 25° C./60% RH for 6 months, analysed by PXRD and HPLC
Format: physicochemical
Protocol: The PXRD measurements were carried out using PANalytical X′Pert PRO powder diffractometer equipped with goniometer of θ/θ configuration and X'Celerator detector. The Cu-anode X-ray tube was operated at 40 kV and 30 mA. The experiments were conducted over the […] of 2.0°-50.0°, 0.030° step size and 50 seconds step time.
In yet another embodiment, physical and chemical stability of 1:1 co-crystal of (rac)-tramadol.HBr-celecoxib sample was determined by storing the sample at 40° C./75% relative humidity (RH) and at 25° C./60% relative humidity (RH) for 6 months as mentioned in below Table 1. The samples were analyzed by PXRD and HPLC for final purity.

With “1:1 co-crystal of (rac)-tramadol hydrobromide and celecoxib” the “HPLC purity (%)” value (at 25° C./60% RH, 1 month) was 99.88%, the PXRD (at 25° C./60% RH, 1 month) was “Stable” and the “HPLC purity (%)” value (at 25° C./60% RH, 2 months) was 99.89%. For the same substance, the PXRD (at 25° C./60% RH, 2 months) was “Stable”, the “HPLC purity (%)” value (at 25° C./60% RH, 3 months) was 99.87% and the PXRD (at 25° C./60% RH, 3 months) was “Stable”. For the same substance, the “HPLC purity (%)” value (at 25° C./60% RH, 6 months) was 99.87%, the PXRD (at 25° C./60% RH, 6 months) was “Stable” and the “HPLC purity (%)” value (at 25° C./60% RH, Initial) was 99.89%. For the same substance, the PXRD (at 25° C./60% RH, Initial) was “Crystalline”, the “HPLC purity (%)” value (at 40° C./75% RH, 1 month) was 99.86% and the PXRD (at 40° C./75% RH, 1 month) was “Stable”. The “HPLC purity (%)” value (at 40° C./75% RH, 2 months) was 99.89%, the PXRD (at 40° C./75% RH, 2 months) was “Stable” and the “HPLC purity (%)” value (at 40° C./75% RH, 3 months) was 99.88%. For the same substance, the PXRD (at 40° C./75% RH, 3 months) was “Stable”, the “HPLC purity (%)” value (at 40° C./75% RH, 6 months) was 99.86% and the PXRD (at 40° C./75% RH, 6 months) was “Stable”. For the same substance, the “HPLC purity (%)” value (at 40° C./75% RH, Initial) was 99.89%, the PXRD (at 40° C./75% RH, Initial) was “Crystalline” and the “physical and chemical stability” value (conclusion from 6 months storage at 40° C./75% RH and 25° C./60% RH) was “physically and chemically stable”. The “change in HPLC purity and PXRD pattern on storage” value (stored for 6 months at 40° C./75% RH and at 25° C./60% RH) was “no change in HPLC purity and PXRD pattern”.
